Experimental data: US20230321025A1, “METHOD AND COMPOUND FOR THE TREATMENT AND ELIMINATION OF AN IMMUNODEFICIENCY CONDITION” (priority 2020, published 2023)
Converted amounts (≈) assume the structure as drawn.

Experiments:
[1] = test system: peripheral blood mononuclear cells (PBMC); experiment: Drug-induced cytotoxicity in PBMC (MTS); format: cell-based; conditions: for Toxicity testing, mean optical density: human, 7 days
Protocol: Drug efficacy was determined by the production of supernatant HIV-1 p24. Drug-induced cytotoxicity was determined by the metabolic reduction of tetrazolium salts (MTS; Promega).
The antiviral drug or agent of the invention, H2K-1001 (90i), was solubilized. PBMCs, stimulated with PHA (phytohemagglutinin) for three days were employed throughout. Virus stocks (U.S. Clinical isolates) grown in PBMCs only, that past the necessary quality controls (i.e., replicate to high titer in PBMCs and meet the requirements as to genotype and phenotype) were rapidly thawed and maintained on ice until required for infection.
Virus and cell controls were included on each test plate. Virus was added after cells and drugs were mixed. Cell, drug and virus containing cultures were incubated for seven (7) days with an interim feeding at day three or four.
Supernatants were sampled at seven days for p24 determination by antigen capture ELISA. Cytotoxicity was measured by the metabolic reduction of the tetrazolium salt according to the manufacturer’s (Promega) recommendations.
The drug analysis reports from these studies are provided below in Tables 7-10. Efficacy (EC50) and viability (IC50) determinations were made using Cho and Cho Median Effect Equation, as noted above. Efficacy is expressed as the 50% effective concentration (EC50) and drug induced toxicity as the 50% inhibitory concentration (IC50).

[2] = test system: gamma interferon production; experiment: Gamma interferon production in spleenocyte of mice; format: cell-based; conditions: versus positive control PMA-Ionomycin combination
Source text: Referring again to FIG. 14, activated CD8+ cells are reported to produce high levels of gamma interferon, which may be involved in the anti-HIV-1 immune responses, contributing to both control of viral spread and concomitant lymphoid follicular lyses. […] This finding may have a far-reaching implication and relevant in the restoration of immune system competence.

[3] = test system: chronically HIV-1 infected H9 cells; experiment: Co-cultivation study with chronically HIV-1 infected H9 cells; format: cell-based
Source text: Viral pathogenesis in co-cultivation of infected cells with uninfected target cells presents a complex system with several target sites (attachment, fusion, transcription, processing, packaging and budding).
In many documented antiretroviral studies, the co-culture system is conventionally used to isolate the virus as well as to study cell-to-cell transmission or to determine if a given compound blocks cell fusion. H2K1001 and/or 90I may use aggressive intervention that could possibly be directed to at least one of a late phase, early fusion and/or attachment, and both early and late. However, judging from the variety of 90I results, early and late mode of action is consistent to this compound.

HIV-1 = experiment: Cell based time course study (mode of action); conditions: AZT and Indinavir as controls
Source text: As such, the cell based time course study is such an important tool for the determination of viral kinetics and a mode of action for a drug. […] The dynamics of the interactions relate to the viral kinetic of infection and drug addition at various time points. In the various cell-based assays conducted on H2K1001 and/or 90I, it may be reasonably concluded that the compound works both early and late.

[4] = test system: multi-drug resistant HIV-1 (MDR-27221); experiment: Inhibitory activity against multi-drug resistant HIV-1 clinical isolate; format: cell-based; conditions: MDR-27221 strain
Source text: Furthermore, a resistance conferring mutation has been identified for virtually all antiretroviral agents in clinical practice. A test virus parental stock originated from a genotypic antiretroviral resistance test (GART) study. Additionally, a clinical isolate was pre-confirmed for genetic and phenotypic variance prior to this test. […] Accordingly, the fact that 90I may be effective against MDR viruses with multiple modes of action, it can replace the need for combination HIV drug therapy. This finding may be highly significant because typical current single target-oriented designer antiretroviral drugs have seriously been challenged by resistant viruses. Due to natural selection, the HIV-1 virus may have developed several survival strategies that include mutation.

[5] = test system: monotropic HIV-1 (macbal); experiment: Antiretroviral effect against monotropic/neurotropic HIV-1 in monocyte; format: cell-based; conditions: monotropic HIV-1 (macbal) in monocyte

O=C(OCCOCCOC(=O)c1ccccc1)c1ccccc1 [90I, diethylene glycol dibenzoate]
Toxicity % CC ([1]; 0.01 ug/ml): 94 % CC | Toxicity % CC ([1]; 0.03 ug/ml): 103 % CC | Toxicity % CC ([1]; 0.10 ug/ml): 91 % CC | Toxicity % CC ([1]; 0.33 ug/ml): 94 % CC | Toxicity % CC ([1]; 1 ug/ml): 97 % CC | Toxicity % CC ([1]; 3 ug/ml (3.2 in Table 11)): 94 % CC | Toxicity % CC ([1]; 10 ug/ml): 100 % CC | Toxicity % CC ([1]; 32 ug/ml): 104 % CC | Toxicity % CC ([1]; 100 ug/ml): 111 % CC | IC50 ([1]; PBMC, read-out: IC50 (drug induced toxicity)): > 100 µg/mL | IC50 (drug induced toxicity) ([1]; PBMC, unit not given): greater than 100 | Toxicity testing, mean optical density ([1]; 0.01 ug/ml): 1.3114 | Toxicity testing, mean optical density ([1]; 0.03 ug/ml): 1.4316 | Toxicity testing, mean optical density ([1]; 0.1 ug/ml): 1.2654 | Toxicity testing, mean optical density ([1]; 0.33 ug/ml): 1.2992 | Toxicity testing, mean optical density ([1]; 1 ug/ml): 1.3474 | Toxicity testing, mean optical density ([1]; 3 ug/ml): 1.3102 | Toxicity testing, mean optical density ([1]; 10 ug/ml): 1.3987 | Toxicity testing, mean optical density ([1]; 32 ug/ml): 1.4463 | Toxicity testing, mean optical density ([1]; 100 ug/ml): 1.5431 | amount of gamma interferon produced [2]: equivalent to that of the positive control | syncytium formation ([3]; co-cultivation): drastic drop | cell viability ([3]; co-cultivation, exponential cell growth): greater than ninety percent | viral burden (p24) after treatment ([3]; co-cultivation, from 1.7 ×10^6 pg of p24): 500 pg | progression of HIV-1 infection ([3]; compared to untreated controls): effectively blocked the progression of HIV-1 infection | mode of action (time of inhibition) (HIV-1): inhibit HIV-1 both early and late | EC50 ([4]; Human immunodeficiency virus 1): 3 µg/mL | TI [4]: > 333 | EC50 ([5]; Human immunodeficiency virus 1, read-out: 50% effective concentration (EC50)): 0.03 µg/mL (≈ 0.0954 µM) | TI [5]: greater than 4000
